The test has as its target T1, hNR2B (Homo sapiens, UniProt Q05586+Q13224).
T1 construct: expressed in transfected cells; host or cells: Xenopus laevis oocytes, cRNA-injected
The test is described as follows: Electrophysiology NMDA receptor experiments: two electrode voltage-clamp in Xenopus laevis oocytes, hNR2B IC50. Format: cell-based. Conditions: 50 μM glutamate, 30 μM glycine. On the technique in general: Two-electrode voltage clamp is typically applied to oocytes expressing channels or transporters.

Setting [1] is: hNR2B activity class, read-out: Activity.
Where [2] appears, read: voltage clamp -40 mV, read-out: hNR2B IC50.

Like-named read-outs stand apart in the source and are kept apart here.

T1 sequence (Q13224 27-1484, other chains not shown): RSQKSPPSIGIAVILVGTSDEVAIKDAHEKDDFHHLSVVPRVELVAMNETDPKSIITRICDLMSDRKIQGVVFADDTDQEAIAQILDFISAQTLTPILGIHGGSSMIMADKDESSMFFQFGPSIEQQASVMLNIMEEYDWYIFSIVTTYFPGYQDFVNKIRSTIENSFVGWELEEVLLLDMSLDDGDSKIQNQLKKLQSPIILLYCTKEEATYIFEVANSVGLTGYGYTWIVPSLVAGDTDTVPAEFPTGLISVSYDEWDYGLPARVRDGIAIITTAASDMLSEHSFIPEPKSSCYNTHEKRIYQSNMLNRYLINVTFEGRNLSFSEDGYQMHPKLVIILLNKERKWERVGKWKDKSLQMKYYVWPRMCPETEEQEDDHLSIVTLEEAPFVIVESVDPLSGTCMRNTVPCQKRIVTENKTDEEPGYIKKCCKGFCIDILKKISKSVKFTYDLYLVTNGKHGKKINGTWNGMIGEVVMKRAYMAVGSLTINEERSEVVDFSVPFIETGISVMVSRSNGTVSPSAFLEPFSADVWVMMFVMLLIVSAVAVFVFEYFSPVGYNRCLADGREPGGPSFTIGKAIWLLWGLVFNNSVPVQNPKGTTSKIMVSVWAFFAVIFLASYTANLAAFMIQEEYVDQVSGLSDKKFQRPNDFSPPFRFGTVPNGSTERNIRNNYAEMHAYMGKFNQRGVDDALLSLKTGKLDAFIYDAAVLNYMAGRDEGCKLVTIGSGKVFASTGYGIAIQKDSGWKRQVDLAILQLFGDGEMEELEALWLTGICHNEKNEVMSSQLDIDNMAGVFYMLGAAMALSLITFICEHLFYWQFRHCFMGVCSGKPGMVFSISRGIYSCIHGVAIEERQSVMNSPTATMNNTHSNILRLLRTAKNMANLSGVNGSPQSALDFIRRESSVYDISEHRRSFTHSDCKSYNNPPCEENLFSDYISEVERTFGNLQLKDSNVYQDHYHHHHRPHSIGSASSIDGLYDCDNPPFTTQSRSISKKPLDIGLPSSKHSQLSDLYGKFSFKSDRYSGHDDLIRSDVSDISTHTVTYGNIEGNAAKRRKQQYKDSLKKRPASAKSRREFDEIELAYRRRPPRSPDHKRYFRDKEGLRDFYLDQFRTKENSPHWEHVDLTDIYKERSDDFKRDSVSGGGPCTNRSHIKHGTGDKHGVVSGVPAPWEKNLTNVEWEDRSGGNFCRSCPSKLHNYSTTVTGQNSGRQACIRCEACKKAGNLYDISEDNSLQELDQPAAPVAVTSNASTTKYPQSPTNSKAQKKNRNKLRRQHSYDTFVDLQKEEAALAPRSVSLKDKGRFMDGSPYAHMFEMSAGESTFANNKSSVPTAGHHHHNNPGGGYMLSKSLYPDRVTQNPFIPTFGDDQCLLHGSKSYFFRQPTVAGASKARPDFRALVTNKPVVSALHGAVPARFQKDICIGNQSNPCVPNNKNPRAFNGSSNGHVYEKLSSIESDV

For `CC(Oc1ccc2[nH]c(=O)ccc2c1)c1nnc(Nc2ccc(Cl)c(Cl)c2)o1` (single isomer, unassigned) [Example 109], the IC50 under setting [1] was below 200 nM.
For the compound `O=C1CCc2cc(OCc3nnc(Nc4ccc(Cl)cc4)o3)ccc2N1` [Example 1, 6-((5-(4-chlorophenylamino)-1,3,4-oxadiazol-2-yl)methoxy)-3,4-dihydroquinolin-2(1H)-one], the IC50 under setting [2] is 715 nM.
For `O=c1ccc2cc(OCc3nnc(-c4ccc(Cl)c(Cl)c4)o3)ccc2[nH]1` [Example 2, 6-((5-(3,4-dichlorophenyl)-1,3,4-oxadiazol-2-yl)methoxy)quinolin-2(1H)-one], under setting [2], the IC50 is above 10000 nM.
For the compound `CC(C)OC(=O)Nc1ccc(OCc2nnc(Nc3ccc(Cl)c(Cl)c3)o2)cc1` [Example 3, Isopropyl 4-((5-(3,4-dichlorophenylamino)-1,3,4-oxadiazol-2-yl)methoxy)phenyl carbamate], the IC50 under setting [2] worked out at 7300 nM.
With `O=C1CCc2cc(OCc3nnc(Nc4ccc(Br)cc4)o3)ccc2N1` [Example 4], the IC50 under setting [2] was 265 nM.
Still for that read-out and setting: next, `O=C1CCc2cc(OCc3nnc(Nc4ccc(Cl)c(Cl)c4)o3)ccc2N1` [Example 5]: 57 nM.
In the case of `O=C1Cc2cc(OCc3nnc(Nc4ccc(Cl)c(Cl)c4)o3)ccc2N1` [Example 8], under setting [1], the IC50 was below 200 nM.
Same read-out and setting: next, `O=C1Cc2cc(OCc3nnc(NCc4ccc(Cl)c(Cl)c4)o3)ccc2N1` [Example 9]: below 200 nM; `O=c1ccc2cc(OCc3nnc(Nc4ccc(Cl)c(Cl)c4)o3)ccc2[nH]1` [Example 10]: below 200 nM.
For `O=c1ccc2cc(OCc3nnc(Nc4ccc(C(F)(F)F)cc4)o3)ccc2[nH]1` [Example 11], under setting [2], the IC50 was 55 nM.
Consider `O=c1ccc2cc(OCc3nnc(Nc4ccc(Cl)cc4)o3)ccc2[nH]1` [Example 12], for which, under setting [1], the IC50 was below 200 nM.
As for `O=c1ccc2cc(OCc3nnc(Nc4ccc(OC(F)(F)F)cc4)o3)ccc2[nH]1` [Example 13], the IC50 under setting [1] was below 200 nM.
Same read-out and setting: to `O=C1CCc2cc(OCc3nnc(Nc4ccc(OC(F)(F)F)cc4)o3)ccc2N1` [Example 14] belongs 201 to 1000 nM; to `O=C1CCc2cc(OCc3nnc(Nc4ccc(Cl)cn4)o3)ccc2N1` [Example 15], above 10000 nM; to `O=C1CCc2cc(OCc3nnc(Nc4ccc(OC(F)F)cc4)o3)ccc2N1` [Example 16], 201 to 1000 nM.
As for `O=c1ccc2cc(OCc3nnc(Nc4ccc(OC(F)F)cc4)o3)ccc2[nH]1` [Example 17], under setting [2], the IC50 turned out to be 80 nM.
Regarding `CCOC(=O)Cc1ccc(Nc2nnc(COc3ccc4c(c3)CCC(=O)N4)o2)cc1` [Example 18], the IC50 under setting [1] is above 10000 nM.
As for `O=C1CCc2cc(OCc3nnc(NCc4ccc(Cl)cc4)o3)ccc2N1` [Example 20], the IC50 under setting [2] turned out to be 476 nM.
On to `O=C1CCc2cc(OCc3nnc(NCc4ccc(Cl)c(Cl)c4)o3)ccc2N1` [Example 21], for which, under setting [1], the IC50 was below 200 nM.
Still for that read-out and setting: to `O=c1ccc2cc(OCc3nnc(NCc4ccc(Cl)c(Cl)c4)o3)ccc2[nH]1` [Example 22] belongs below 200 nM; to `O=C1CCc2cc(OCc3nnc(NCc4ccc(OC(F)(F)F)cc4)o3)ccc2N1` [Example 23], below 200 nM.
For `O=c1ccc2cc(OCc3nnc(NCc4ccc(Cl)nc4)o3)ccc2[nH]1` [Example 24], the IC50 was 1000 to 10000 nM (Activity, hNR2B activity class) and 7240 nM (hNR2B IC50 (nM), voltage clamp -40 mV).
As to `O=C1CCc2cc(OCc3nnc(NCc4ccc(Cl)nc4)o3)ccc2N1` [Example 25], the IC50 under setting [1] is above 10000 nM.
Regarding `O=c1ccc2cc(OCc3nnc(NCc4ccc(OC(F)(F)F)cc4)o3)ccc2[nH]1` [Example 26], the IC50 under setting [1] was below 200 nM.
For `O=c1ccc2cc(OCc3nnc(NCc4ccc(OC(F)F)cc4)o3)ccc2[nH]1` [Example 27], the IC50 under setting [1] was below 200 nM.
As for `O=C1CCc2cc(OCc3nnc(NCc4ccc(OC(F)F)cc4)o3)ccc2N1` [Example 28], under setting [1], the IC50 was below 200 nM.
For `CS(=O)(=O)Nc1ccc(OCc2nnc(Nc3ccc(Cl)c(Cl)c3)o2)cc1` [Example 29], under setting [1], the IC50 was below 200 nM.
`CS(=O)(=O)Nc1ccc(OCc2nnc(NCc3ccc(Cl)c(Cl)c3)o2)cc1` [Example 30]: the IC50 under setting [2] worked out at 19 nM.
In the case of `CCOC(=O)Nc1ccc(OCc2nnc(Nc3ccc(Cl)c(Cl)c3)o2)cc1` [Example 31], the IC50 under setting [1] was above 10000 nM.
Turning to `CCOC(=O)Nc1ccc(OCc2nnc(NCc3ccc(Cl)c(Cl)c3)o2)cc1` [Example 32], the IC50 under setting [2] amounted to 2120 nM.
As to `O=c1ccc2cc(OCc3nnc(Nc4ccccc4F)o3)ccc2[nH]1` [Example 33], the IC50 under setting [1] is above 10000 nM.
For the compound `O=c1ccc2cc(OCc3nnc(Nc4ccccc4)o3)ccc2[nH]1` [Example 34], the IC50 under setting [1] lay within 1000 to 10000 nM.
On to `O=c1ccc2cc(OCc3nnc(Nc4ccc(Cl)cc4F)o3)ccc2[nH]1` [Example 35], for which, under setting [2], the IC50 stood at 884 nM.
Turning to `O=c1ccc2cc(OCc3nnc(Nc4cccc(F)c4)o3)ccc2[nH]1` [Example 39], the IC50 under setting [1] fell in the range of 1000 to 10000 nM.
In the case of `O=c1ccc2cc(OCc3nnc(Nc4ccc(F)cc4)o3)ccc2[nH]1` [Example 40], under setting [1], the IC50 is 1000 to 10000 nM.
Consider `O=c1ccc2cc(OCc3nnc(Nc4ccccc4Cl)o3)ccc2[nH]1` [Example 41], for which, under setting [1], the IC50 was above 10000 nM.
The same measure, in the same setting: next, `O=c1ccc2cc(OCc3nnc(Nc4cccc(C(F)(F)F)c4)o3)ccc2[nH]1` [Example 42]: 201 to 1000 nM; `Cc1ccc(Nc2nnc(COc3ccc4[nH]c(=O)ccc4c3)o2)cc1` [Example 45]: 201 to 1000 nM.
Same read-out and setting: to `Cc1cccc(Nc2nnc(COc3ccc4[nH]c(=O)ccc4c3)o2)c1` [Example 46] belongs 1000 to 10000 nM.
`O=c1ccc2cc(OCc3nnc(Nc4ccc(Cl)c(F)c4)o3)ccc2[nH]1` [Example 49]: under setting [2], the IC50 was 18 nM.
As to `Clc1ccc(Nc2nnc(COc3ccc4[nH]ncc4c3)o2)cc1Cl` [Example 50], under setting [1], the IC50 is below 200 nM.
Turning to `O=c1ccc2cc(OCc3nnc(Nc4ccc(Cl)c(C(F)(F)F)c4)o3)ccc2[nH]1` [Example 51], the IC50 under setting [1] is below 200 nM.
Turning to `CC(C)c1ccc(Nc2nnc(COc3ccc4[nH]c(=O)ccc4c3)o2)cc1` [Example 52], the IC50 under setting [1] is below 200 nM.
Take `O=c1ccc2cc(OCc3nnc(Nc4cc(Cl)cc(Cl)c4)o3)ccc2[nH]1` [Example 53]: the IC50 under setting [2] worked out at 4040 nM.
Take `O=c1ccc2cc(OCc3nnc(Nc4ccccc4C(F)(F)F)o3)ccc2[nH]1` [Example 54]: under setting [1], the IC50 was above 10000 nM.
As for `O=c1ccc2cc(OCc3nnc(Nc4ccc(Cl)c(OC(F)(F)F)c4)o3)ccc2[nH]1` [Example 55], the IC50 under setting [2] turned out to be 542 nM.
Regarding `O=c1ccc2cc(OCc3nnc(Nc4ccc(Cl)cc4Cl)o3)ccc2[nH]1` [Example 56], the IC50 under setting [1] is above 10000 nM.
On the same count and under the same terms, to `O=c1ccc2cc(OCc3nnc(Nc4cc(Cl)ccc4Cl)o3)ccc2[nH]1` [Example 57] belongs above 10000 nM.
As to `O=c1ccc2cc(OCc3nnc(Nc4cccc(Cl)c4)o3)ccc2[nH]1` [Example 58], under setting [2], the IC50 is 830 nM.
For `O=c1ccc2cc(OCc3nnc(Nc4cccc(Cl)c4Cl)o3)ccc2[nH]1` [Example 59], under setting [1], the IC50 is below 200 nM.
For the compound `O=c1ccc2cc(OCc3nnc(NCc4ccccc4Cl)o3)ccc2[nH]1` [Example 63], under setting [1], the IC50 lay in the range of 1000 to 10000 nM.
Still for that read-out and setting: next, `O=c1ccc2cc(OCc3nnc(Nc4c(Cl)cccc4Cl)o3)ccc2[nH]1` [Example 66]: above 10000 nM.
Same read-out and setting: next, `O=c1ccc2cc(OCc3nnc(NCc4ccc(Cl)cc4F)o3)ccc2[nH]1` [Example 67]: 201 to 1000 nM; `O=c1ccc2cc(OCc3nnc(NCc4cccc(F)c4)o3)ccc2[nH]1` [Example 68]: 201 to 1000 nM; `O=c1ccc2cc(OCc3nnc(NCc4c(Cl)cccc4Cl)o3)ccc2[nH]1` [Example 70]: 1000 to 10000 nM.
The same measure, in the same setting: to `O=c1ccc2cc(OCc3nnc(Nc4ccc(C(F)(F)F)c(Cl)c4)o3)ccc2[nH]1` [Example 73] belongs below 200 nM; to `O=c1ccc2cc(OCc3nnc(Nc4ccc(OC(F)(F)F)c(Cl)c4)o3)ccc2[nH]1` [Example 74], below 200 nM; to `O=c1ccc2cc(OCc3nnc(NCc4ccccc4C(F)(F)F)o3)ccc2[nH]1` [Example 75], 1000 to 10000 nM.
With `O=c1ccc2cc(OCc3nnc(NCc4ccc(C(F)(F)F)cc4)o3)ccc2[nH]1` [Example 76], the IC50 under setting [1] was below 200 nM.
Still for that read-out and setting: to `O=c1ccc2cc(OCc3nnc(NCc4cccc(Cl)c4)o3)ccc2[nH]1` [Example 77] belongs 201 to 1000 nM; to `CC1(C)Cc2cc(OCc3nnc(Nc4ccc(Cl)c(Cl)c4)o3)ccc2NC1=O` [Example 80], 1000 to 10000 nM; to `CC1(C)Cc2cc(OCc3nnc(Nc4ccc(Cl)c(F)c4)o3)ccc2NC1=O` [Example 83], 1000 to 10000 nM.
The same measure, in the same setting: to `CC1(C)Cc2cc(OCc3nnc(NCc4ccc(Cl)c(Cl)c4)o3)ccc2NC1=O` [Example 84] belongs above 10000 nM; to `O=c1ccc2cc(OCc3nnc(NCc4ccc5c(c4)OCO5)o3)ccc2[nH]1` [Example 85], 1000 to 10000 nM; to `Cc1cc(CNc2nnc(COc3ccc4[nH]c(=O)ccc4c3)o2)ccc1F` [Example 86], 201 to 1000 nM.
Take `O=c1ccc2cc(OCc3nnc(Nc4ccc(OC(F)F)c(Cl)c4)o3)ccc2[nH]1` [Example 87]: the IC50 under setting [1] is below 200 nM.
Turning to `O=c1ccc2cc(OCc3nnc(Nc4ccc(Cl)c(OC(F)F)c4)o3)ccc2[nH]1` [Example 88], under setting [1], the IC50 is below 200 nM.
The same measure, in the same setting: next, `O=c1ccc2cc(OCc3nnc(Nc4cccc(Oc5ccccc5)c4)o3)ccc2[nH]1` [Example 89]: 201 to 1000 nM; `Cc1cc(Nc2nnc(COc3ccc4[nH]c(=O)ccc4c3)o2)ccc1F` [Example 90]: 201 to 1000 nM; `O=c1ccc2cc(OCc3nnc(Nc4ccc(Oc5ccccc5)cc4)o3)ccc2[nH]1` [Example 91]: 1000 to 10000 nM.
Turning to `Cc1ccc(Nc2nnc(COc3ccc4[nH]c(=O)ccc4c3)o2)cc1Cl` [Example 92], under setting [1], the IC50 is below 200 nM.
For `Cc1cccc(CNc2nnc(COc3ccc4[nH]c(=O)ccc4c3)o2)c1` [Example 94], the IC50 under setting [1] was in the range of 201 to 1000 nM.
As for `O=c1ccc2cc(OCc3nnc(Nc4ccc(F)c(Cl)c4)o3)ccc2[nH]1` [Example 96], the IC50 under setting [1] lay in the range of 201 to 1000 nM.

The record behind these values is patent US8722670B2, “Selective NR2B antagonists” (Bristol-Myers Squibb Company, priority 2011, dated 2014).
